According to patent publication US7361665B2, “Inhibitors of c-Jun N-terminal kinases (JNK) and other protein kinases” (Vertex Pharmaceuticals Incorporated, priority 2002, dated 2008):

Tests used:
human Lck kinase = assay: Lck inhibition assay (radioactivity-based assay A or spectrophotometric assay B); format: biochemical
Protocol: The compounds of this invention can be evaluated as inhibitors of human Lck kinase using either a radioactivity-based assay or spectrophotometric assay.
(§1) The compounds are assayed as inhibitors of full length bovine thymus Lck kinase (from Upstate Biotechnology, cat. no. 14-106) expressed and purified from baculo viral cells. Lck kinase activity is monitored by following the incorporation of ^33P from ATP into the tyrosine of a random poly Glu-Tyr polymer substrate of composition, Glu:Tyr=4:1 (Sigma, cat. no. P-0275). The following are the final concentrations of the assay components: 0.025 M HEPES, pH 7.6, 10 mM MgCl2, 2 mM DTT, 0.25 mg/ml BSA, 10 μM ATP (1-2 μCi ^33P-ATP per reaction), 5 mg/ml poly Glu-Tyr, and 1-2 units of recombinant human […] kinase. In a typical assay, all the reaction components with the exception of ATP are pre-mixed and aliquoted into assay plate wells. […] The plates are sealed and the amount of radioactivity associated with the filters is quantified on a TopCount scintillation counter. The radioactivity incorporated is plotted as a function of the inhibitor concentration. […]
(§2) In a typical assay, all the reaction components with the exception of ATP are pre-mixed and aliquoted into assay plate wells. […] The absorbance change at 340 nm with time, the rate of the reaction, is monitored on a molecular devices plate reader. […]

human Src kinase = target: T1, human Src kinase (Homo sapiens, UniProt P12931); assay: Src inhibition assay (radioactivity-based assay A or spectrophotometric assay B); format: biochemical
T1 construct: full length recombinant human Src kinase (from Upstate Biotechnology, cat. no. 14-117); purchased Upstate Biotechnology 14-117; host or cells: baculovirus-infected cells ('baculo viral cells')
T1 sequence (P12931 whole entry): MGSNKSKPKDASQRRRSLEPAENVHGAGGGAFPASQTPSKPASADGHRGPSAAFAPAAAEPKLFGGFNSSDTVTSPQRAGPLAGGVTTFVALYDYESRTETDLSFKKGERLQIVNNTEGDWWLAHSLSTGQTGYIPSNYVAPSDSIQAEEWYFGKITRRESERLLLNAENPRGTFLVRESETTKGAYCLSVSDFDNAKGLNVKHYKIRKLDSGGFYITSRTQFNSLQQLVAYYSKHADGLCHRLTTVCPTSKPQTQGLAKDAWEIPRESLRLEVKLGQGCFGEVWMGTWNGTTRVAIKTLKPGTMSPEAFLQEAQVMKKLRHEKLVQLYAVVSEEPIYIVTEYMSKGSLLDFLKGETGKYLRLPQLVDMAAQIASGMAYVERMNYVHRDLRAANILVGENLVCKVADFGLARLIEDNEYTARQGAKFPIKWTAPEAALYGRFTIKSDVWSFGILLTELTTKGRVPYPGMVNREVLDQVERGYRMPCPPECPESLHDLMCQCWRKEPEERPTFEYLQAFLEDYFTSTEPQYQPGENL
Source text: The compounds of this invention can be evaluated as inhibitors of human Src kinase using either a radioactivity-based assay or spectrophotometric assay.
as §1, with “compounds can be” for “compounds are”, “length recombinant human Src” for “length bovine thymus Lck”, “no. 14-117)” for “no. 14-106)”, “cells. Src” for “cells. Lck”, “components: 0.05” for “components: 0.025”
as §2

Cc1nc(-c2cccs2)sc1-c1ccnc(Nc2ccc(S(N)(=O)=O)cc2)n1 [IIc-22]
Ki (human Lck kinase): < 0.1 µM
Ki (human Src kinase): < 0.1 µM
